Test results reported in patent US20230310462A1, “COMBINATION DRUG FOR THE CONTROL AND MANAGEMENT OF TYPE 2 DIABETES MELLITUS” (LABORATORIOS SILANES S.A. DE C.V., priority 2020, published 2023).

Columns and labels:
[1] = according to biopharmaceutical classification; cited from earlier work
[2] = Single-dose crossover comparative bioavailability study, fixed combination vs co-administered reference drugs, plasma HPLC-MS/MS
Description: In another embodiment of the invention, bioavailability tests are performed to determine whether there are differences in the magnitude and rate of absorption between the test product of this invention (fixed dose combination) and co-administration of reference drugs that impact the bioavailability of the drugs upon administration.
On the other hand, the determination of the pharmacokinetic parameters of Cmax and area under the plasma concentration curve with respect to time (ABC0-t) are determined, which allow characterizing the bioavailability of the drug of this invention from its dosage form, in terms of speed and degree of respective absorption. Therefore, the purpose of the bioavailability tests is to determine if there are differences in the magnitude and speed of absorption between the test product of the present invention (fixed combination) and the co-administration of reference drugs that impact the bioavailability of the drugs when administered under fasting conditions.
A total of 44 healthy volunteers (27 men and 17 women) were randomized in the study. […] After a period of 7 half-lives, the pharmacokinetic effect of washout can be completely disregarded. Each volunteer received the treatments under study according to randomization.
The pharmacokinetic parameters were determined through independent model methods. Descriptive statistics are presented below in Tables 19-21.

[3] = reported, in Mexican population; cited from earlier work

| Intrasubject Variability Coefficient, Ln (ABC0-t) of glimepiride ([2]; both, human, in vivo) | Intrasubject Variability Coefficient, Ln (Cmax) of glimepiride ([2]; both, human, in vivo) | Intrasubject Variability Coefficient, Ln (Cmax) ([2]; both, human, in vivo) | Intrasubject Variability Coefficient, Ln (ABC0-t) ([2]; vildagliptin pharmacokinetic parameter) | Structure (SMILES) | solubility [1] | elimination half-life [3] |
| --- | --- | --- | --- | --- | --- | --- |
| 15.58% | 28.21% | – | – | CCC1=C(C)CN(C(=O)NCCc2ccc(S(=O)(=O)NC(=O)N[C@H]3CC[C@H](C)CC3)cc2)C1=O [glimepiride] | low | 7.5 ± 4 h |
| – | – | 19.12% | 9.14% | N#C[C@@H]1CCCN1C(=O)CN[C@@]12C[C@@H]3C[C@@H](CC(O)(C3)C1)C2 [vildagliptin] | high | – |
